Source: EP4796125A1, “TREATMENT OF PATIENT WITH NEGATIVE P53 GENE MUTATION, POSITIVE KRAS GENE MUTATION AND POSITIVE BRCA MUTATION” (Ascentawits Pharmaceuticals, Ltd., priority 2023, dated 2025)

Key:
[1] = system: hepatocellular carcinoma; test: Phase II clinical trial of AST-3424 conducted in China (CTR20191399); assay type: in vivo, human
From the text: The clinical trial registration number is CTR20191399.
• 1. Male or female, aged ≥18 years. • 2. Pathohistologically confirmed advanced HCC that cannot be controlled by surgical resection or local therapy. • 3. Previously received standard systemic therapy, including but not limited to, Sorafenib and/or Oxaliplatin-containing systemic chemotherapy, Lenvatinib, Regorafenib, and/or Nivolumab, experienced disease progression, toxicity intolerance, or refusal to continue treatment with these drugs. • 4. At least one measurable lesion according to RECIST 1.1 criteria. Previously irradiated lesions cannot be considered as measurable lesions unless clear radiographic progression is observed after radiotherapy. • 5. […] Eastern Cooperative Oncology Group (ECOG) performance status score of 0 or 1. • 7. Life expectancy ≥ 12 weeks. • 8. With or without HBV or HCV infection. • a. Subjects with HBV infection must have HBV-DNA level less than 2,000 IU/ml, and receive antiviral therapy with entecavir, tenofovir disoproxil fumarate, or tenofovir alafenamide fumarate according to the national guidelines for the prevention and treatment of chronic hepatitis B. The therapy must be maintained during the study and continue for 6 months after the last dose. • b. Subjects with HCV infection (with detectable HCV-RNA or anti-HCV antibodies) may receive treatment according to medical practice. • 9. Child-Pugh score ≤ 6 points. • 10. No history of hepatic encephalopathy. • 11. Before starting to use the study drug, all toxicities from previous anticancer therapies (except alopecia, fatigue, or peripheral neuropathy) must have recovered to Grade 1 or baseline levels (NCI CTCAE Version 5). • 12. Laboratory tests must meet the following criteria. During 14 days before laboratory tests at screening, indicators cannot be corrected by blood transfusion, hematopoietic stimulating factor or albumin infusion is allowed to meet the inclusion criteria. • a. Hemoglobin ≥ 90 g/L; • b. Platelet count ≥ 80 × 10^9/L; • c. Absolute neutrophil count (ANC) ≥ 1.5 × 10^9/L; • d. Serum total bilirubin ≤ 3 mg/dL; • e. ALT and AST ≤ 5.0 × ULN; • f. International normalized ratio (INR) ≤ 2.3 or prothrombin time prolongation ≤ 6 seconds; • g. Albumin ≥ 29 g/L; • h. Creatinine clearance > 50 mL/min as measured according to the Cockcroft-Gault equation. • 13. No history of alcohol abuse, drug addiction or substance abuse within the past year. • 14. Fertile female patients must be in non-lactating and have a negative pregnancy test result within 5 days before the initiation of treatment (positive urine pregnancy test result needs to be confirmed by a serum pregnancy test). • 15. Fertile female and male subjects must agree to use effective contraceptive measures (e.g. surgical sterilization or condom or diaphragm contraceptive measures combined with spermicidal gel or intrauterine contraceptive device [IUD], etc.) with their partners from the start of study participation until 6 months after the last dose. • 16. Voluntary participation in this study, fully understanding of relevant risks, good compliance, and signing the informed consent form. Subjects may also sign a consent form for future biomedical research (FBR). However, subjects who would not participate in FBR may still participate in the main trial.
• 1. Untreated active central nervous system (CNS) metastases or leptomeningeal disease. Subjects with adequately treated CNS metastases may participate if they are confirmed to be stable for at least 4 weeks by clinical examination and brain imaging (MRI or CT) during screening. • 2. History of other malignant tumors within 2 years, except for adequately treated basal cell carcinoma, carcinoma in situ at other sites, or other tumors of which the natural medical history and the treatment will not interfere with the safety or efficacy assessment of the current study. • 3. Major surgery (other than diagnostic surgery) performed within 4 weeks prior to the first dose. • 4. […]

[2] = system: γH2AX protein in H460 cells; test: WB detection of γH2AX protein (DNA double-strand damage); assay type: cell-based; conditions: AST-3424 alone or with 5 µM Nutlin-3, dose-dependent (Figures 24-26)
From the text: In the first experiment, the second experiment and the third experiment about the effect of the combination of AST-3424 and Nutlin-3 on Ser15-p53, Ser20-p53, Total p53, MDM2, and p21 proteins in H460 cells in Example 21, the applicant also performed WB detection of γH2AX protein.

[3] = system: cell lines and mouse tumor models of KRAS pathogenic mutations; conditions: in vitro and in vivo pharmacodynamic experiments; data of WO2023046060A1; cited from earlier work
[4] = 6 cases positive (+) for BRCA gene mutation, as of March 11, 2024
[5] = 8 cases negative (-) for BRCA gene mutation, as of March 11, 2024
[6] = 8 cases positive (+) for p53 gene mutation which may affect protein expression (MUT), as of March 11, 2024
[7] = 9 cases negative (-) for p53 gene mutation (WT), as of March 11, 2024
[8] = 18 liver cancer subjects who completed the clinical efficacy evaluation
[9] = 30 enrolled subjects, as of March 11, 2024
[10] = subgroup of 5 cases negative (-) for BRCA gene mutation, Table 4 data
[11] = subgroup of 5 cases negative (-) for p53 gene mutation or deficiency, Table 4 data
[12] = subgroup of 5 cases positive (+) for BRCA gene mutation, Table 4 data
[13] = subgroup of 5 cases positive (+) for p53 gene mutation or deficiency, Table 4 data

SMILES: C[C@H](OP(=O)(N1CC1)N1CC1)c1ccc([N+](=O)[O-])c(Oc2cccc(C(=O)N(C)C)c2)c1 [AST-3424]
- DCR [1, 4]: 66.7%
- ORR [1, 4]: 16.7%
- longest OS [1, 4]: more than 13.8 months
- longest PFS [1, 4]: more than 11.5 months
- mean OS [1, 4]: more than 9.5 months
- mean PFS [1, 4]: 4.5 months
- DCR [1, 5]: 50%
- ORR [1, 5]: 0%
- longest OS [1, 5]: more than 17.6 months
- longest PFS [1, 5]: 2.9 months
- mean OS [1, 5]: more than 9.4 months
- mean PFS [1, 5]: 1.9 months
- DCR [1, 6]: 25%
- ORR [1, 6]: 0%
- longest OS [1, 6]: > 14.0 months
- longest PFS [1, 6]: 1.6 months
- mean OS [1, 6]: more than 9.3 months
- mean PFS [1, 6]: 1.4 months
- DCR [1, 7]: 77.8%
- ORR [1, 7]: 22.2%
- longest OS [1, 7]: > 13.8 months
- longest PFS [1, 7]: more than 11.5 months
- mean OS [1, 7]: more than 7.7 months
- mean PFS [1, 7]: more than 4.1 months
- DCR [1, 8]: 61.1%
- ORR [1, 8]: 5.6%
- longest OS [1, 9]: > 17.6 months
- longest PFS [1, 9]: > 11.5 months
- DCR [1, 10]: 60%
- ORR [1, 10]: 0%
- mean PFS [1, 10]: 1.976 months
- DCR [1, 11]: 80%
- ORR [1, 11]: 20%
- mean PFS [1, 11]: 4.1 months
- DCR [1, 12]: 80%
- ORR [1, 12]: 20%
- mean PFS [1, 12]: 3.82 months
- DCR [1, 13]: 60%
- ORR [1, 13]: 0%
- mean PFS [1, 13]: 1.756 months
- level of γH2AX protein [2]: upregulate
- sensitivity of cell lines and mouse tumor models of KRAS pathogenic mutations [3]: more sensitive
